Data published in patent US20150283092A1, “DRUG DELIVERY COMPOSITION” (Alkermes Pharma Ireland Limited, priority 2009, published 2015).
Read-outs that look alike come from different tables or passages of the source.

What was measured:
[1] = cited from earlier work
[2] = Dissolution of tacrolimus compositions in 0.005% HPC, pH 4.5, USP <711> apparatus I, baskets at 100 rpm; type: physicochemical
Method: Compositions A, B, and C were placed in 0.005% HPC, pH 4.5 according to USP <711>, apparatus I (2009), Baskets at 100 rpm (the dissolution vehicle). As an example of the different release profiles for the three compositions, the amount of medicament released from composition A was 92.07% at 120 min. The amount of medicament released from composition B was less than 10% at 360 min (excluded from graph due to scale). The amount of medicament released from Composition C was 43.55% at 120 min.

| Structure (SMILES) | pka value ([1]; first of two printed pka values) | pka value ([1]; second of two printed pka values) | native solubility of tacrolimus in this dissolution vehicle [2] |
| --- | --- | --- | --- |
| CN1CCN(C2=Nc3cc(Cl)ccc3Nc3ccccc32)CC1 [clozapine] | 3.98 | 7.62 | – |
| C=CC[C@@H]1/C=C(\C)C[C@H](C)C[C@H](OC)[C@H]2O[C@@](O)(C(=O)C(=O)N3CCCC[C@H]3C(=O)O[C@H](/C(C)=C/[C@@H]3CC[C@@H](O)[C@H](OC)C3)[C@H](C)[C@@H](O)CC1=O)[C@H](C)C[C@@H]2OC [tacrolimus] | – | – | approximately 43 % dissolved |
